pIC50: −log10 of the molar value.
Tested on: 521955-158-R2-J5-PDC complex spheroids, viability
Test: Anticancer human tumor 521955-158-R2-J5-PDC patient-derived pancreatic carcinoma cell line growth inhibition [RAS]
Settings: for pIC50: curve of first compound; for viability, T/C: stronger effect = lower value
Procedure, shortened: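 Tumour cells grown as complex spheroids with HUVEC endothelial cells and mesenchymal stem cells, treated with RAS pathway inhibitor combinations. Each agent spans half-log steps from near clinical Cmax, or 10 microM where Cmax is unknown.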
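Also: compound exposure lasted seven days before the viability read.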
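For viability, T/C in this document: spheroids also contain HUVEC endothelial cells and mesenchymal stem cells as stroma.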

For `CCc1c2c(nc3ccc(O)cc13)-c1cc3c(c(=O)n1C2)COC(=O)[C@]3(O)CC` + CCn1c(-c2cc(N3CCN(C)CC3)cnc2C(C)OC)c2c3cc(ccc31)-c1csc(n1)CC(NC(=O)C1CC1C)C(=O)N1CCCC(N1)C(=O)OCC(C)(C)C2, the pIC50 (second compound 0.000949 µM) was over 9.02, the pIC50 (second compound 0.003 µM) was over 9.02 and the pIC50 (second compound 0.00949 µM) was over 9.02. It also gave a pIC50 (second compound 0.03 µM) of over 9.02, a pIC50 (second compound 0.0949 µM) of over 9.02 and a pIC50 (second compound 0.3 µM) of over 9.02. For the same compound, the viability, T/C (second compound 0.000949 µM, first compound 0.000949 µM) was 30.3%, the viability, T/C (second compound 0.000949 µM, first compound 0.003 µM) was 23.1% and the viability, T/C (second compound 0.000949 µM, first compound 0.00949 µM) was 20.6%. It also gave a viability, T/C (second compound 0.000949 µM, first compound 0.03 µM) of 6.46%, a viability, T/C (second compound 0.000949 µM, first compound 0.0949 µM) of 5.57% and a viability, T/C (second compound 0.000949 µM, first compound 0.3 µM) of 4.03%. It also gave a viability, T/C (second compound 0.003 µM, first compound 0.000949 µM) of 30.4%, a viability, T/C (second compound 0.003 µM, first compound 0.003 µM) of 26.8% and a viability, T/C (second compound 0.003 µM, first compound 0.00949 µM) of 19.9%. It also gave a viability, T/C (second compound 0.003 µM, first compound 0.03 µM) of 10.5%, a viability, T/C (second compound 0.003 µM, first compound 0.0949 µM) of 8.02% and a viability, T/C (second compound 0.003 µM, first compound 0.3 µM) of 5.19%. It also gave a viability, T/C (second compound 0.00949 µM, first compound 0.000949 µM) of 26.2%, a viability, T/C (second compound 0.00949 µM, first compound 0.003 µM) of 26% and a viability, T/C (second compound 0.00949 µM, first compound 0.00949 µM) of 19.6%. For the same compound, the viability, T/C (second compound 0.00949 µM, first compound 0.03 µM) was 9.8%, the viability, T/C (second compound 0.00949 µM, first compound 0.0949 µM) was 10.9% and the viability, T/C (second compound 0.00949 µM, first compound 0.3 µM) was 5.95%. For the same compound, the viability, T/C (second compound 0.03 µM, first compound 0.000949 µM) was 19.4%, the viability, T/C (second compound 0.03 µM, first compound 0.003 µM) was 21.2% and the viability, T/C (second compound 0.03 µM, first compound 0.00949 µM) was 13.2%. For the same compound, the viability, T/C (second compound 0.03 µM, first compound 0.03 µM) was 8.77%, the viability, T/C (second compound 0.03 µM, first compound 0.0949 µM) was 10.2% and the viability, T/C (second compound 0.03 µM, first compound 0.3 µM) was 5.37%. For the same compound, the viability, T/C (second compound 0.0949 µM, first compound 0.000949 µM) was 11.3%, the viability, T/C (second compound 0.0949 µM, first compound 0.003 µM) was 14.1% and the viability, T/C (second compound 0.0949 µM, first compound 0.00949 µM) was 8.2%. For the same compound, the viability, T/C (second compound 0.0949 µM, first compound 0.03 µM) was 6.36%, the viability, T/C (second compound 0.0949 µM, first compound 0.0949 µM) was 5.92% and the viability, T/C (second compound 0.0949 µM, first compound 0.3 µM) was 2.8%. It also gave a viability, T/C (second compound 0.3 µM, first compound 0.000949 µM) of 8.86%, a viability, T/C (second compound 0.3 µM, first compound 0.003 µM) of 10.8% and a viability, T/C (second compound 0.3 µM, first compound 0.00949 µM) of 8.12%. The viability, T/C (second compound 0.3 µM, first compound 0.03 µM) was 5.86%, the viability, T/C (second compound 0.3 µM, first compound 0.0949 µM) was 6.11% and the viability, T/C (second compound 0.3 µM, first compound 0.3 µM) was 2.57%.

`C=CC(=O)Nc1cc(Nc2nccc(-c3cn(C)c4ccccc34)n2)c(OC)cc1N(C)CCN(C)C` + CCn1c(-c2cccnc2C(C)OC)c2c3cc(ccc31)N1CCOC(CC(NC(=O)C(C(C)C)N(C)C(=O)C3(F)CCN(C(=O)C#CC(C)(C)N(C)C)CC3)C(=O)N3CCCC(N3)C(=O)OCC(C)(C)C2)C1 showed a pIC50 (second compound 0.000949 µM) of 6.30, a pIC50 (second compound 0.003 µM) of 6.12 and a pIC50 (second compound 0.00949 µM) of 6.31. The pIC50 (second compound 0.03 µM) was 6.38, the pIC50 (second compound 0.0949 µM) was 6.36 and the pIC50 (second compound 0.3 µM) was 6.75. For the same compound, the viability, T/C (second compound 0.000949 µM, first compound 0.00316 µM) was 89.9%, the viability, T/C (second compound 0.000949 µM, first compound 0.01 µM) was 84.1% and the viability, T/C (second compound 0.000949 µM, first compound 0.0316 µM) was 84.1%. It also gave a viability, T/C (second compound 0.000949 µM, first compound 0.1 µM) of 72.6%, a viability, T/C (second compound 0.000949 µM, first compound 0.316 µM) of 59% and a viability, T/C (second compound 0.000949 µM, first compound 1 µM) of 37.1%. It also gave a viability, T/C (second compound 0.003 µM, first compound 0.00316 µM) of 110%, a viability, T/C (second compound 0.003 µM, first compound 0.01 µM) of 82.6% and a viability, T/C (second compound 0.003 µM, first compound 0.0316 µM) of 71.8%. It also gave a viability, T/C (second compound 0.003 µM, first compound 0.1 µM) of 65.3%, a viability, T/C (second compound 0.003 µM, first compound 0.316 µM) of 59.2% and a viability, T/C (second compound 0.003 µM, first compound 1 µM) of 44.1%. For the same compound, the viability, T/C (second compound 0.00949 µM, first compound 0.00316 µM) was 101%, the viability, T/C (second compound 0.00949 µM, first compound 0.01 µM) was 91.5% and the viability, T/C (second compound 0.00949 µM, first compound 0.0316 µM) was 88.6%. For the same compound, the viability, T/C (second compound 0.00949 µM, first compound 0.1 µM) was 75.4%, the viability, T/C (second compound 0.00949 µM, first compound 0.316 µM) was 61.4% and the viability, T/C (second compound 0.00949 µM, first compound 1 µM) was 34.1%. For the same compound, the viability, T/C (second compound 0.03 µM, first compound 0.00316 µM) was 88.6%, the viability, T/C (second compound 0.03 µM, first compound 0.01 µM) was 79.2% and the viability, T/C (second compound 0.03 µM, first compound 0.0316 µM) was 80%. It also gave a viability, T/C (second compound 0.03 µM, first compound 0.1 µM) of 70.8%, a viability, T/C (second compound 0.03 µM, first compound 0.316 µM) of 51.8% and a viability, T/C (second compound 0.03 µM, first compound 1 µM) of 41%. The viability, T/C (second compound 0.0949 µM, first compound 0.00316 µM) was 86.3%, the viability, T/C (second compound 0.0949 µM, first compound 0.01 µM) was 95.8% and the viability, T/C (second compound 0.0949 µM, first compound 0.0316 µM) was 70%. For the same compound, the viability, T/C (second compound 0.0949 µM, first compound 0.1 µM) was 70.2%, the viability, T/C (second compound 0.0949 µM, first compound 0.316 µM) was 56.6% and the viability, T/C (second compound 0.0949 µM, first compound 1 µM) was 36.9%. The viability, T/C (second compound 0.3 µM, first compound 0.00316 µM) was 70.2%, the viability, T/C (second compound 0.3 µM, first compound 0.01 µM) was 79.2% and the viability, T/C (second compound 0.3 µM, first compound 0.0316 µM) was 72%. It also gave a viability, T/C (second compound 0.3 µM, first compound 0.1 µM) of 55.4%, a viability, T/C (second compound 0.3 µM, first compound 0.316 µM) of 45.3% and a viability, T/C (second compound 0.3 µM, first compound 1 µM) of 36.9%.

Reference: PubChem BioAssay AID2060900 (Molecular Pharmacology Branch, DTP, NCI, 2025)
